In ChEMBL document CHEMBL5614459, “Conformationally Constrained Isoquinolinones as Orally Efficacious Hepatitis B Capsid Assembly Modulators” (ACS Med Chem Lett, 2024):
pEC50: −log10 of the molar value. Calls of active or inactive are those of the source. No cut-off for these calls is given here.

Key:
[1] = molecular target: Core antigen (Hepatitis B virus) (UniProt Q03732); assay: Binding affinity to Hepatitis B virus core protein assessed as inhibition of capsid assembly by measuring inhibition of pgRNA-encapsidation; conditions: filed as modulator
[2] = system: Hepatitis B virus; assay: Antiviral activity against Hepatitis B virus genotype D infected in HepG2-hNTCP-C4 cells assessed as inhibition of cccDNA formation by de novo infection assay; assay type: functional, organism-based
[3] = system: Hepatitis B virus; assay: Antiviral activity against Hepatitis B virus genotype D infected in HepDE19 cells assessed as inhibition of viral replication by measuring decrease in intracellular rcDNA level by bDNA assay; assay type: functional, organism-based; conditions: Hepatitis B virus, genotype D, HepDE19
[4] = system: Hepatitis B virus; assay: Antiviral activity against Hepatitis B virus Genotype D (NCBI U95551); assay type: functional, organism-based
[5] = system: Hepatitis B virus; assay: Antiviral activity against Hepatitis B virus Genotype A (NCBI AF537372); assay type: functional, organism-based
[6] = system: Hepatitis B virus; assay: Antiviral activity against Hepatitis B virus Genotype C (NCBI AB198079); assay type: functional, organism-based; conditions: genotype C (NCBI […])
[7] = system: Hepatitis B virus; assay: Antiviral activity against Hepatitis B virus Genotype F (NCBI HE974369); assay type: functional, organism-based
[8] = system: Hepatitis B virus; assay: Antiviral activity against Hepatitis B virus Genotype H (NCBI AB064315); assay type: functional, organism-based
[9] = Cytotoxicity against human HepDE19 cells by CellTiter-Glo assay; assay type: toxicity, cell-based
[10] = system: Hepatitis B virus; assay: Antiviral activity against Hepatitis B virus Genotype B (NCBI GQ205440); assay type: functional, organism-based
[11] = system: Hepatitis B virus; assay: Anti-viral activity against Hepatitis B virus infected in mouse assessed as log10 reduction of HBV DNA levels in serum at 1 mg/kg, po qd for 7 days; assay type: functional; conditions: time 7 day
[12] = Intrinsic clearance in mouse liver microsomes; assay type: ADME, Microsome; conditions: read-out: CLH
[13] = AUC(last) in CD-1 mouse at 10 mg/kg, po; assay type: ADME, organism-based; conditions: in vivo
[14] = system: Hepatitis B virus; assay: Antiviral activity against Hepatitis B virus Genotype H (NCBI AB179747); assay type: functional, organism-based
[15] = molecular target: Core antigen (Hepatitis B virus) (UniProt Q03732); assay: Binding affinity to Hepatitis B virus core protein assessed as inhibition of capsid assembly by measuring induction of empty capsid formation; conditions: filed as modulator
[16] = system: Hepatitis B virus; assay: Antiviral activity against Hepatitis B virus Genotype E (NCBI AB091255); assay type: functional, organism-based
[17] = Cmax in CD-1 mouse at 10 mg/kg, po; assay type: ADME, organism-based; conditions: in vivo
[18] = system: Hepatitis B virus; assay: Anti-viral activity against Hepatitis B virus infected in mouse assessed as log10 reduction of HBV DNA levels in serum at 3 mg/kg, po qd for 7 days; assay type: functional; conditions: time 7 day
[19] = Intrinsic clearance in human liver microsomes; assay type: ADME, Microsome; conditions: read-out: CLH
[20] = system: Hepatitis B virus; assay: Antiviral activity against Hepatitis B virus Genotype E (NCBI HE974380); assay type: functional, organism-based
[21] = system: Hepatitis B virus; assay: Antiviral activity against Hepatitis B virus genotype D harboring core protein-I105T mutant; assay type: functional, organism-based
[22] = Half life in CD-1 mouse at 10 mg/kg, po; assay type: ADME, organism-based; conditions: in vivo
[23] = Drug uptake in CD-1 mouse liver at 10 mg/kg, po or 2 mg/kg, iv measured after 24 hrs; assay type: ADME, organism-based; conditions: read-out: Drug uptake
[24] = system: Hepatitis B virus; assay: Antiviral activity against Hepatitis B virus Genotype B (NCBI KU964112); assay type: functional, organism-based
[25] = system: Hepatitis B virus; assay: Anti-viral activity against Hepatitis B virus infected in mouse assessed as log10 reduction of HBV DNA levels in serum at 0.3 mg/kg, po qd for 7 days; assay type: functional; conditions: time 7 day
[26] = system: Hepatitis B virus; assay: Antiviral activity against Hepatitis B virus genotype D harboring core protein-T33N mutant; assay type: functional, organism-based
[27] = Selectivity index, ratio of CC50 for cytotoxicity against human HepDE19 cells to EC50 for antiviral activity against Hepatitis B virus genotype D infected in HepDE19 cells; assay type: toxicity, cell-based; conditions: read-out: Ratio CC50/EC50

Core antigen (Hepatitis B virus), sequence (Q03732 as listed by the source): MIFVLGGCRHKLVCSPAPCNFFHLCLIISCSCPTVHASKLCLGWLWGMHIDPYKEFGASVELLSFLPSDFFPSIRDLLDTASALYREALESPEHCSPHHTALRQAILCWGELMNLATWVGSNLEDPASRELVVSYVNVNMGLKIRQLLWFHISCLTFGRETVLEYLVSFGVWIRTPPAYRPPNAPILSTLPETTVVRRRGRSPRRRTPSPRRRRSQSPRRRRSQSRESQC

SMILES: CN(C(=O)c1cc2cc(F)c(F)cc2[nH]1)[C@@H]1COCc2[nH]c(=O)c3cc(F)c(F)cc3c21
- Activity [1]: Active
- pEC50 [2]: 7.59
- pEC50 [3]: 8.30
- pEC50 [4]: 9.00
- pEC50 [5]: 9.00
- pEC50 [6]: 9.00
- pEC50 [7]: 9.00
- pEC50 [8]: 9.00
- CC50 [9]: > 10000 nM
- pEC50 [10]: 9.00
- log(activity) [11]: 2.92
- microsomal CLint [12]: 25 µL/min/mg
- AUC(0-t) [13]: 31800 ng·h/mL
- pEC50 [14]: 9.00
- Activity [15]: Active
- pEC50 [16]: 9.00
- Cmax [17]: 2140 ng/mL
- log(activity) [18]: 2.86
- microsomal CLint [19]: 45 µL/min/mg
- pEC50 [20]: 7.89
- pEC50 [21]: 8.22
- half-life [22]: 10.7 h
- concentration at 24 h [23]: 4730 ng/g
- pEC50 [24]: 9.00
- log(activity) [25]: 1.48
- pEC50 [26]: 7.20
- selectivity ratio [27]: > 1500
